Laboratory results published in patent US9328122B2, “7-substituted Hanfangichin B derivative, and preparation method and use thereof” (HANGZHOU BENSHENG PHARMACEUTICAL CO., LTD., priority 2012, dated 2016).
Values after ≈ are worked out from the molar mass of the structure shown.

Key:
[1] = tested on: RPMI 8226 (multiple myeloma) cells; test: MTT cell growth inhibition, multiple myeloma cells; assay type: cell-based, human; settings: Homo sapiens, RPMI 8226, 72 h, MTT; for IC50: read-out: IC50; for IC90: read-out: IC90
How it was run: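 RPMI 8226 myeloma cells, 6000 per well in RPMI-1640 with 10% FBS, were dosed with fangchinoline derivatives at several concentrations the day after seeding. Incubation ran 72 h at 37° C in 5% CO2, then viable cells were measured by MTT.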

[2] = tested on: Becap-37 (human breast cancer) cells; test: MTT cell growth inhibition, solid tumor cells; assay type: cell-based; settings: Homo sapiens, Becap-37, 72 h, MTT; for IC50: read-out: IC50; for IC90: read-out: IC90
How it was run: (§1)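 Exposure lasted 72 h, following 24 h growth of 6000 cells/well in DMEM high glucose containing 10% FBS at 37 °C in 5% CO2; endpoint was MTT-based viable cell concentration across tested compound concentrations.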

[3] = tested on: Hep-2 (laryngeal carcinoma) cells; test: MTT cell growth inhibition, solid tumor cells; assay type: cell-based; settings: Homo sapiens, Hep-2, 72 h, MTT; for IC50: read-out: IC50; for IC90: read-out: IC90
How it was run: as §1

[4] = tested on: MGC-803 (human gastric cancer) cells; test: MTT cell growth inhibition, solid tumor cells; assay type: cell-based; settings: MGC-803, 72 h, MTT; for IC50: read-out: IC50; for IC90: read-out: IC90
How it was run: as §1

[5] = tested on: A549 (human lung cancer) cells; test: MTT cell growth inhibition, solid tumor cells; assay type: cell-based; settings: Homo sapiens, A549, 72 h, MTT; for IC50: read-out: IC50; for IC90: read-out: IC90
How it was run: as §1

[6] = tested on: RKO (human colon adenocarcinoma) cells; test: MTT cell growth inhibition, solid tumor cells; assay type: cell-based; settings: Homo sapiens, RKO, 72 h, MTT; for IC50: read-out: IC50; for IC90: read-out: IC90
How it was run: as §1

[7] = tested on: Hep G2 (human liver cancer) cells; test: MTT cell growth inhibition, solid tumor cells; assay type: cell-based; settings: Homo sapiens, HepG2, Hep G2, 72 h, MTT; for IC50: read-out: IC50; for IC90: read-out: IC90
How it was run: as §1

[8] = tested on: MG-63 (osteosarcoma) cells; test: MTT cell growth inhibition, solid tumor cells; assay type: cell-based; settings: Homo sapiens, MG-63, 72 h, MTT; for IC50: read-out: IC50; for IC90: read-out: IC90
How it was run: as §1

[9] = tested on: U87-MG (malignant glioma) cells; test: MTT cell growth inhibition, solid tumor cells; assay type: cell-based; settings: Homo sapiens, U-87 MG, U87-MG, 72 h, MTT; for IC50: read-out: IC50; for IC90: read-out: IC90
How it was run: as §1

[10] = tested on: Hela (human cervical cancer) cells; test: MTT cell growth inhibition, solid tumor cells; assay type: cell-based; settings: Homo sapiens, Hela, 72 h, MTT; for IC50: read-out: IC50; for IC90: read-out: IC90
How it was run: as §1

tumor = test: Antitumor activity compared with fangchinoline, overall statement; assay type: cell-based; settings: tumor type not specified
[11] = tested on: Kasumi-1 (acute myeloid leukemia M2 type) cells; test: MTT cell growth inhibition, leukemia cells; assay type: cell-based, human; settings: Homo sapiens, Kasumi-1, 72 h, MTT; for IC50: read-out: IC50; for IC90: read-out: IC90
How it was run: (§2)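 Growth inhibition is assessed by MTT after leukemia cells, plated at 6000 per well in RPMI-1640 containing 10% fetal bovine serum, are exposed for 72 hours to graded compound concentrations added the day after plating.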

[12] = tested on: Jurkat (acute lymphoblastic leukemia) cells; test: MTT cell growth inhibition, leukemia cells; assay type: cell-based, human; settings: Homo sapiens, Jurkat, 72 h, MTT; for IC50: read-out: IC50; for IC90: read-out: IC90
How it was run: as §2

[13] = tested on: SK-OV-3 (ovarian cancer) cells; test: MTT cell growth inhibition, solid tumor cells; assay type: cell-based, human; settings: Homo sapiens, SK-OV-3, 72 h, MTT; for IC50: read-out: IC50; for IC90: read-out: IC90
How it was run: as §1

[14] = tested on: CNE (nasopharyngeal carcinoma) cells; test: MTT cell growth inhibition, solid tumor cells; assay type: cell-based, human; settings: Homo sapiens, CNE, 72 h, MTT; for IC50: read-out: IC50; for IC90: read-out: IC90
How it was run: as §1

[15] = tested on: PC-3 (prostate cancer) cells; test: MTT cell growth inhibition, solid tumor cells; assay type: cell-based, human; settings: Homo sapiens, PC-3, 72 h, MTT; for IC50: read-out: IC50; for IC90: read-out: IC90
How it was run: as §1

[16] = tested on: CaEs-17 (esophageal cancer) cells; test: MTT cell growth inhibition, solid tumor cells; assay type: cell-based, human; settings: Homo sapiens, CaEs17, CaEs-17, 72 h, MTT; for IC50: read-out: IC50; for IC90: read-out: IC90
How it was run: as §1

[17] = tested on: PANC-1 (pancreatic cancer) cells; test: MTT cell growth inhibition, solid tumor cells; assay type: cell-based, human; settings: Homo sapiens, PANC-1, 72 h, MTT; for IC50: read-out: IC50; for IC90: read-out: IC90
How it was run: as §1

IC50 [1] [µg/mL] | IC90 [1] [µg/mL] | IC50 [2] [µg/mL] | IC90 [2] [µg/mL] | IC50 [3] [µg/mL] | IC90 [3] [µg/mL] | IC50 [4] [µg/mL] | IC90 [4] [µg/mL] | IC50 [5] [µg/mL] | IC90 [5] [µg/mL] | IC50 [6] [µg/mL] | IC90 [6] [µg/mL] | IC50 [7] [µg/mL] | IC90 [7] [µg/mL] | IC50 [8] [µg/mL] | IC90 [8] [µg/mL] | IC50 [9] [µg/mL] | IC90 [9] [µg/mL] | IC50 [10] [µg/mL] | IC90 [10] [µg/mL] | SMILES | further results
0.42 (≈ 0.572 µM) | 1.58 (≈ 2.15 µM) | 4.87 (≈ 6.63 µM) | 7.89 (≈ 10.7 µM) | 3.18 (≈ 4.33 µM) | 8.31 (≈ 11.3 µM) | 2.94 (≈ 4 µM) | 8.5 (≈ 11.6 µM) | 2.16 (≈ 2.94 µM) | 3.94 (≈ 5.36 µM) | 1.66 (≈ 2.26 µM) | 2.95 (≈ 4.01 µM) | 3.73 (≈ 5.08 µM) | 7.96 (≈ 10.8 µM) | 2.6 (≈ 3.54 µM) | 3.5 (≈ 4.76 µM) | 2.38 (≈ 3.24 µM) | 9.1 (≈ 12.4 µM) | 0.5 (≈ 0.68 µM) | 1 (≈ 1.36 µM) | COc1ccc2cc1Oc1ccc(cc1)C[C@H]1c3cc(c(OC)cc3CCN1C)Oc1c(OCc3cccc(F)c3F)c(OC)cc3c1[C@H](C2)N(C)CC3 [BS-FC-204] | antitumor activity compared with that of fangchinoline (tumor): significantly superior; IC50 [11]: 1.29 µg/mL (≈ 1.76 µM); IC90 [11]: 3.16 µg/mL (≈ 4.3 µM); IC50 [12]: 2.23 µg/mL (≈ 3.03 µM); IC90 [12]: 3.86 µg/mL (≈ 5.25 µM); IC50 [13]: 12.2 µg/mL (≈ 16.6 µM); IC90 [13]: 16 µg/mL (≈ 21.8 µM); IC50 [14]: 2.7 µg/mL (≈ 3.67 µM); IC90 [14]: 5.2 µg/mL (≈ 7.08 µM); IC50 [15]: 3.8 µg/mL (≈ 5.17 µM); IC90 [15]: 6.39 µg/mL (≈ 8.7 µM); IC50 [16]: 4.6 µg/mL (≈ 6.26 µM); IC90 [16]: 14.5 µg/mL (≈ 19.8 µM); IC50 [17]: 2.23 µg/mL (≈ 3.03 µM); IC90 [17]: 6.85 µg/mL (≈ 9.32 µM)
0.12 (≈ 0.16 µM) | 0.5 (≈ 0.668 µM) | 1.92 (≈ 2.56 µM) | 3.94 (≈ 5.26 µM) | 3.18 (≈ 4.25 µM) | 10.2 (≈ 13.6 µM) | 1.36 (≈ 1.82 µM) | 4.28 (≈ 5.72 µM) | 1.57 (≈ 2.1 µM) | 3.94 (≈ 5.26 µM) | 0.74 (≈ 0.988 µM) | 1.76 (≈ 2.35 µM) | 1.44 (≈ 1.92 µM) | 3.9 (≈ 5.21 µM) | 2.71 (≈ 3.62 µM) | 3.88 (≈ 5.18 µM) | 1.63 (≈ 2.18 µM) | 4.5 (≈ 6.01 µM) | 1 (≈ 1.34 µM) | 3.42 (≈ 4.57 µM) | COc1ccc2cc1Oc1ccc(cc1)C[C@H]1c3cc(c(OC)cc3CCN1C)Oc1c(OS(=O)(=O)c3ccccc3)c(OC)cc3c1[C@H](C2)N(C)CC3 [BS-FC-104] | antitumor activity compared with that of fangchinoline (tumor): significantly superior; IC50 [11]: 0.95 µg/mL (≈ 1.27 µM); IC90 [11]: 3.68 µg/mL (≈ 4.91 µM); IC50 [12]: 0.45 µg/mL (≈ 0.601 µM); IC90 [12]: 3.03 µg/mL (≈ 4.05 µM); IC50 [13]: 1.88 µg/mL (≈ 2.51 µM); IC90 [13]: 3.79 µg/mL (≈ 5.06 µM); IC50 [14]: 2.5 µg/mL (≈ 3.34 µM); IC90 [14]: 4.9 µg/mL (≈ 6.54 µM); IC50 [15]: 2.5 µg/mL (≈ 3.34 µM); IC90 [15]: 5.51 µg/mL (≈ 7.36 µM); IC50 [16]: 2 µg/mL (≈ 2.67 µM); IC90 [16]: 7.42 µg/mL (≈ 9.91 µM); IC50 [17]: 2.01 µg/mL (≈ 2.68 µM); IC90 [17]: 10.8 µg/mL (≈ 14.4 µM)
0.11 (≈ 0.166 µM) | 0.46 (≈ 0.694 µM) | 1.91 (≈ 2.88 µM) | 3.86 (≈ 5.82 µM) | 1.9 (≈ 2.87 µM) | 5.78 (≈ 8.72 µM) | 1.19 (≈ 1.8 µM) | 3.93 (≈ 5.93 µM) | 1.2 (≈ 1.81 µM) | 3.18 (≈ 4.8 µM) | 1.37 (≈ 2.07 µM) | 2.76 (≈ 4.16 µM) | 1.48 (≈ 2.23 µM) | 4.37 (≈ 6.59 µM) | 0.8 (≈ 1.21 µM) | 1.9 (≈ 2.87 µM) | 1.13 (≈ 1.7 µM) | 4.5 (≈ 6.79 µM) | 0.71 (≈ 1.07 µM) | 1.9 (≈ 2.87 µM) | C=C(C)COc1c(OC)cc2c3c1Oc1cc4c(cc1OC)CCN(C)[C@H]4Cc1ccc(cc1)Oc1cc(ccc1OC)C[C@@H]3N(C)CC2 [BS-FC-221] | antitumor activity compared with that of fangchinoline (tumor): significantly superior; IC50 [11]: 1 µg/mL (≈ 1.51 µM); IC90 [11]: 3.39 µg/mL (≈ 5.11 µM); IC50 [12]: 0.52 µg/mL (≈ 0.785 µM); IC90 [12]: 1.89 µg/mL (≈ 2.85 µM); IC50 [13]: 2.38 µg/mL (≈ 3.59 µM); IC90 [13]: 3.94 µg/mL (≈ 5.94 µM); IC50 [14]: 1.8 µg/mL (≈ 2.72 µM); IC90 [14]: 3.8 µg/mL (≈ 5.73 µM); IC50 [15]: 3 µg/mL (≈ 4.53 µM); IC90 [15]: 5.46 µg/mL (≈ 8.24 µM); IC50 [16]: 1.53 µg/mL (≈ 2.31 µM); IC90 [16]: 5.6 µg/mL (≈ 8.45 µM); IC50 [17]: 1.42 µg/mL (≈ 2.14 µM); IC90 [17]: 4.65 µg/mL (≈ 7.02 µM)
0.13 (≈ 0.17 µM) | 0.48 (≈ 0.627 µM) | 2.1 (≈ 2.74 µM) | 3.79 (≈ 4.95 µM) | 3.66 (≈ 4.78 µM) | 6.4 (≈ 8.36 µM) | 1.21 (≈ 1.58 µM) | 3.02 (≈ 3.95 µM) | 1.85 (≈ 2.42 µM) | 3.48 (≈ 4.55 µM) | 1.15 (≈ 1.5 µM) | 2.23 (≈ 2.91 µM) | 1.39 (≈ 1.82 µM) | 3.74 (≈ 4.89 µM) | 2.4 (≈ 3.14 µM) | 3.9 (≈ 5.1 µM) | 1.34 (≈ 1.75 µM) | 3.24 (≈ 4.23 µM) | 1.5 (≈ 1.96 µM) | 3.35 (≈ 4.38 µM) | COc1ccc2cc1Oc1ccc(cc1)C[C@H]1c3cc(c(OC)cc3CCN1C)Oc1c(OC(=O)c3c(F)cccc3Cl)c(OC)cc3c1[C@H](C2)N(C)CC3 [BS-FC-315] | antitumor activity compared with that of fangchinoline (tumor): significantly superior; IC50 [11]: 0.85 µg/mL (≈ 1.11 µM); IC90 [11]: 3.04 µg/mL (≈ 3.97 µM); IC50 [12]: 0.59 µg/mL (≈ 0.771 µM); IC90 [12]: 1.24 µg/mL (≈ 1.62 µM); IC50 [13]: 2.99 µg/mL (≈ 3.91 µM); IC90 [13]: 6.81 µg/mL (≈ 8.9 µM); IC50 [14]: 3.3 µg/mL (≈ 4.31 µM); IC90 [14]: 6.6 µg/mL (≈ 8.62 µM); IC50 [15]: 2.95 µg/mL (≈ 3.85 µM); IC90 [15]: 5.02 µg/mL (≈ 6.56 µM); IC50 [16]: 1.84 µg/mL (≈ 2.4 µM); IC90 [16]: 3.86 µg/mL (≈ 5.04 µM); IC50 [17]: 1.61 µg/mL (≈ 2.1 µM); IC90 [17]: 5.52 µg/mL (≈ 7.21 µM)
